Source: patent publication US20050192279A1, “Pyridazinones as antagonists of alpha4 integrins” (priority 2004, published 2005)
Where “and” joins values, the source holds several entries; their conditions need not be identical. Identical values can stand only once.

What was measured:
DSS induced colitis = test: Dextran Sulfate Sodium (DSS) Induced Colitis; assay type: in vivo, Balb/c female mice and C57Black/6 mice
Text: In Vivo Model for Colitis: Dextran Sulfate Sodium (DSS) Induced Colitis Inflammatory bowel diseases such as ulcerative colitis and Crohn's disease are characterized by diminished intestinal barrier function, apparent inflammatory damage that may include erosive loss of intestinal mucosa, and inflammatory infiltrates in the mucosa and submucosa. […] Among the many possible chemicals used are dextran sulfate sodium (DSS) and trinitrobenzene sulfonic acid (TNBS). The dextran sulfate sodium model of experimental colitis is characterized by a shrinkage of the colon's length, macrosopic inflammatory damage, diarrhea, a discontinuous pattern of mucosal epithelial damage in the distal colon with infiltration of inflammatory cells that include macrophages and neutrophils into the mucosa and submucosa (Blumberg, R. S., Saubermann, L. J., and Strober, W. Animal models of mucosal inflammation and their relation to human inflammatory bowel disease. Current Opinion in Immunology, 11: 648-656, 1999; […]., and Nakaya, R. A novel method of induction of reliable experimental acute and chronic colitis in mice. […] Cooper, […]., and […]. Clinicopathologic study of dextran sulfate sodium experimental murine colitis. Lab Invest., 69: 238-249, 1993; […]., Bajaj-Elliott, M., MacDonald, […]., and Buchler, M. W. Characterization of acute murine dextran sodium sulphate colitis: Cytokine profile and dose dependency. Digestion, 62: 240-248, 2000; […]., Husband, A. J., and Doe, W. F. The inflammatory infiltrate in the acute stage of the dextran sulphate sodium induced colitis: B cell response differs depending on the percentage of DSS used to induce it. BMC Clinical Pathology, 1: 3-13, 2001; and Diaz-Granados, Howe, K., Lu, J, and […]. Dextran sulfate sodium-induced colonic histopathology, but not altered epithelial ion transport, is reduced by inhibition of phosphodiesterase activity. Amer. J. Pathology, 156: 2169-2177, 2000). Balb/c female mice and […]/6 mice were used in these studies. […] When […]/6 mice were used, a solution of tap water containing 4% DSS was used. During the ensuing 7-day period, test animals were administered a preparation of an experimental compound. This material may be administered orally or intraperitoneally or subcutaneously, once or twice daily. At the end of this period, the animals were euthanized and their colons were collected for further analysis. Among the parameters analyzed were the length of the colon starting from the anus to the top of the cecum, the consistency of any stools found within the colon, and the gross macroscopic appearance of the colon. The distal colon between the 1st and the 4th centimeter was removed and placed in 10% neutral buffered formalin for later histological analysis. For the following parameters, colon length, stool consistency and appearance, and macroscopic damage a scoring system is used to describe the changes. […] Thus, […] Histological analyses of tissues consisted of staining paraffin-embedded tissue sections with hematoxylin-eosin dye. Epithelial damage scores were determined as the fraction of the tissue section showing damaged epithelium. […] Statistical analysis performed in Graphpad Prism 4.0 using ANOVA with Dunnet's or Bonferroni's multiple comparison's test.

circulating leukocytes = test: In Vivo Model for Leukocytosis; parameters: species or system Balb/c mice; conditions: bled 1-1.5 h after administration
Text: In Vivo Model for Leukocytosis
Leukocytosis is the increase in circulating white blood cells (leukocytes). This can be brought about by preventing leukocyte binding to counter-receptor adhesion molecules expressed on high endothelial venules. This cell adhesion occurs between immunoglobulin superfamily molecules and integrins. Relevant examples of these paired interactions include […] Adhesion Molecule-1 and AlphaL Beta2 integrin, Vascular Cell Adhesion Molecule-1 and α4β1 integrin, and Mucosal Addressin Cell Adhesion Molecule-1 and α4β7 integrin, respectively.
In this model, a compound that antagonizes these leukocyte-endothelial interactions will cause an increase in circulating leukocytes, defined as leukocytosis, as measured at 1-1.5 h post-administration. This leukocytosis is indicative that normal lymphocyte or leukocyte emigration from the peripheral circulation was prevented. Similar emigration of cells out of the circulation into inflamed tissues is responsible for the progression and maintainance of the inflammatory state. Leukocytosis is an indication that lymphocyte and leukocyte extravasation is prevented, and is predictive of general anti-inflammatory activity.
One week prior to being tested, 7-10 week old female Balb/c mice, n=8 per group, were bled and randomized according to leukocyte counts. One week later, the mice were adminstered test compound orally or subcutaneously and then bled 1-1.5 h after drug administration, approximately 1 h after the peak blood concentration of the compound occurred. Whole blood, 250-350 microliters, was collected from each mouse into potassium-EDTA serum collection tubes (Becton-Dickenson) and mixed to prevent clotting.
Cell counts and differential counts on the whole blood preparation were performed using an Advia 120 Hematology System (Bayer Diagnostics). Cell counts as total leukocytes and as total lympohcytes were made and compared to counts made from mice dosed with vehicle only. Data were reported as percent of vehicle control for lymphocyte counts and total leukocyte counts.
Statistical analyses were performed using ANOVA with Dunnet's multiple comparison test.

TNBS induced colitis = test: Trinitrobenzenesulfonic acid (TNBS) Induced Colitis, rats; assay type: in vivo, Male Wistar rats; conditions: rat
Text: In Vivo Model: Trinitrobenzenesulfonic acid (TNBS) Induced Colitis The TNBS model of experimental colitis (Bobin-Dubigeon, C., Collin, X., Grimaud, N., Robert, J-M., Guillaume Le Baut, G., and Petit, J-Y. Effects of tumour necrosis factor-a synthesis inhibitors on rat trinitrobenzene sulphonic acid-induced chronic colitis. Eur. J. […] These symptomatic signs in the above—mentioned models are similar to what occur in human colitis. Male Wistar rats (200-250 g) are inoculated with 500 microliters of a solution of 10 to 20 mg of TNBS in 30% ethanol delivered intracolonically via catheter or ball-tipped gavage needle to the 8th cm from the anus. When Balb/c female mice (8-12 weeks of age) were used, the inoculation volume was 50 microliters containing 2-3 mg of TNBS in 30% ethanol delivered intracolonically via catheter or ball-tipped gavage needle to the 4th cm from the anus. During the ensuing 7 days, test animals were administered a preparation of an experimental compound. This material may be administered orally, subcutaenously or intraperitoneally, once or twice daily. At the end of this period, the animals were euthanized and their colons were collected for further analysis. Among the parameters analyzed were the length of the colon starting from the anus to the top of the cecum, the weight of the colon, the consistency of any stools found within the colon, the presence or absence of intraperitoneal adhesions on the serosal surfacr of the intestin, and the gross macroscopic appearance of the colon. […] In rats, the distal colon between the 5th and the 8th centimeter is dissected and placed in 10% neutral buffered formalin for later histological analysis. In mice, the 1st to the 4th cm was collected for histological analyses. For the following parameters—colon length, colon weight, stool consistency and appearance and macroscopic damage—a scoring system was used to describe the changes. The four scores for each animal were added to provide a Total Score. […] For the presence of blood in stool, one point was added to scores <3. […] Histological analyses of tissues consisted of staining paraffin-embedded tissue sections with hematoxylin-eosin dye. Epithelial damage scores were determined as the fraction of the tissue section showing damaged epithelium. […] Statistic analyses for these experiments performed with Graphpad Prism 4.0, using ANOVA, with Dunnets or Bonferroni's multiple comparisons test.

[1] = test system: eosinophil peroxidase levels in ear punches; test: PMA-Induced Inflammation in Mouse Ear Skin and Measurement of Eosinophil Peroxidase; assay type: in vivo, BALB/C mice; conditions: total dose 5 mg/kg po bid; ear punches 24 h after PMA; 5 mg/kg
Method: Phorbol 12-Myristate 13-Acetate (PMA)-Induced Inflammation in Mouse Ear Skin and Measurement of Eosinophil Peroxidase
Phorbol 12-myristate 13-acetate (PMA) when applied to skin, generates a vigorous recruitment of immune cells to the site of application. Over a 24 hour period, there is accumulation of fluid and cells to the inflamed site, and thus is a general indicator of an inflammatory response. Among the recruited cells are eosinophils and neutrophils. Eosinophils can migrate into an inflamed or infected tissue via alpha 4 beta 1 integrin interactions with vascular cell adesion molecule-1 (VCAM-1) counter-receptors on vascular endothelial cells, and via alpha 4 beta 7 integrin to mucosal addressin cellular adhesion molecule on vascular endothelial cells in the gastrointestinal tract and mesenteric system. The recruited esoinophils can be quantified by measuring the presence of eosinophil peroxidase in a sample of the homogenized tissue.
Female BALB/C mice are ordered at 6 weeks of age and 16-18 grams from Charles River were used between 6-10 weeks of age. The animals were randomly assigned to groups of 10 (5/box) and housed in groups in plastic cages in a room with 12 h light-dark cycle and controlled temperature and humidity. They received food and water ad libitum.
Phorbol 12-myristate 13-acetate (PMA) was dissolved as 5 mg per mL stock in dimethyl sulfoxide (DMSO) and stored frozen as 20 microliter aliquots. For application to mouse ears, each aliquot was diluted in 2 mL with acetone.
The right ear of each mouse was treated topically with 20 microliters of acetone solution (10 microliters to each side of the ear) containing either 1 microgram of phorbol 12-myristate 13-acetate (PMA) or acetone alone.
Drugs that were tested orally were administered at −1 and +3 hours relative to PMA application.
Mice were sacrificed 24 h after PMA application. The right ear was punched with a 6 mm tissue punch and the tissue was placed in a tube on dry ice and kept frozen until extraction.
One tablet of phosphate citrate buffer was dissolved with urea hydrogen peroxide in 100 ml of water in which one tablet containing 60 mg of o-phenylenediaminedihydrochloride was added.
Ear tissue samples were homogenized in 2 ml of HTAB for 15 sec at speed 5.5 with a Polytron (large head) (Brinkman Instruments). The homogenate was stored at −20° C. until assayed. […]
Samples were typically tested at either a 1:2 or 1:4 dilution made with HTAB. […] Absorbance was read at 490 nm for the specific with subtraction of a 650 nm noise signal using a Thermomax 96-well spectrophotmetric plate reader (Molecular Devices). […]
The inhibition of PMA-induced ear edema was measured by eosinophil peroxidase levels in ear punches. […]

[2] = 30 mg/kg po bid, C57 Black/6 mice
[3] = 60 mg/kg po bid, C57 Black/6 mice

SMILES: COc1cnn(CCO)c(=O)c1-c1ccc(C[C@H](NC(=O)OC(C)(C)C)C(=O)OCCO)cc1 [Cpd 231]
- % Inhibition of Epithelial Damage Score (DSS induced colitis; [2]): 23.91%
- % Inhibition of Total Macroscopic Score (DSS induced colitis; [2]): 13.4%
- % Inhibition of Total Macroscopic Score (DSS induced colitis; 30 mg/kg po bid, balb/c mice): 43.8%
- % Inhibition of Epithelial Damage Score (DSS induced colitis; [3]): 53.9%
- % Inhibition of Total Macroscopic Score (DSS induced colitis; [3]): 23.4%
- % Inhibition of Epithelial Damage Score (DSS induced colitis; 60 mg/kg po bid, balb/c mice): 36.5%
- % Inhibition of Total Macroscopic Score (DSS induced colitis; 60 mg/kg po bid, balb/c mice): 47.7%
- Lymphoycte Counts % of Vehicle Control (circulating leukocytes; 3 mg/kg po): 114.5%
- Total Leukocyte Count % of Vehicle Control (circulating leukocytes; 3 mg/kg po): 110.7%
- Lymphoycte Counts % of Vehicle Control (circulating leukocytes; 10 mg/kg po): 94.0%
- Total Leukocyte Count % of Vehicle Control (circulating leukocytes; 10 mg/kg po): 98.0%
- Lymphoycte Counts % of Vehicle Control (circulating leukocytes; 30 mg/kg po): 88.7%
- Total Leukocyte Count % of Vehicle Control (circulating leukocytes; 30 mg/kg po): 86.9%
- % Inhibition of Epithelial Damage Score (TNBS induced colitis; 30 mg/kg po bid): 24.69%
- % Inhibition of Total Macroscopic Score (TNBS induced colitis; 30 mg/kg po bid): 19.33%
- % Inhibition of Epithelial Damage Score (TNBS induced colitis; 60 mg/kg po bid): 38.64%
- % Inhibition of Total Macroscopic Score (TNBS induced colitis; 60 mg/kg po bid): 5.455%

SMILES: C[C@@H]1C[C@H]2[C@@H]3CCC4=CC(=O)C=C[C@]4(C)[C@@]3(F)[C@@H](O)C[C@]2(C)[C@@]1(O)C(=O)CO [dexamethasone]
- % Inh. of Eosinophil Peroxidase [1]: 83.6% and 109.0%
